Results from paper PMC8959576 (Frontiers in Immunology, 2022).

How the values were obtained:
[1] = system: BMDCs; assay: Cytokines assay (ELISA of BMDC supernatants); type: cell-based, mouse; details: lipopeptide 1 μg/mL, 48 h, n=3, Figure 3G
Protocol: (§1) Bone marrow-derived dendritic cells (BMDCs) were isolated using methods described previously ([26], [27]). Briefly, the cells were obtained by flushing the femurs of female BALB/C mice, then differentiated in RPMI 1640 medium containing 10% FBS and supplemented with IL-4 (10ng/mL) and GM-CSF (10ng/mL) for 7 days at 37°C in 5% CO2.
BMDCs (4 × 10^6 cells/well in 4mL RMPI-1640 medium) were stimulated with either synthetic lipopeptide (1 μg/mL) or PBS for 48 h. The expressions of IL-1β, TNF-α and IL-12 were analyzed by ELISA kit according to the manufacturer’s instructions.

[2] = system: SARS-CoV-2 pseudovirus; details: in vivo
[3] = molecular target: T1, HEK-Blue mTLR2 cells (TLR2) (Mus musculus, UniProt Q9QUN7); assay: TLR2 signaling assay (SEAP activity, HEK-Blue detection); type: cell-based; details: 14 h at 37°C, read at 620 nm, n=3, Figure 2A
T1 construct: host or cells: HEK-Blue mTLR2 cells (HEK293-derived reporter line)
Protocol: HEK-Blue™ detection was prepared according to manufacturer’s instruction. Briefly, the lipopeptides were added into a flat-bottom 96-well plate (20μL per well) and endotoxin-free water was used as a negative control. Then HEK-Blue™ mTLR2 cells were suspended in HEK-Blue™ detection and added into the plate (180μL per well, 5×10^4 cells). After incubation at 37°C for 14h, the SEAP activity was measured by a spectrophotometer at 620nm.

[4] = system: RBD-ACE2 interaction; assay: SARS-CoV-2 neutralizing antibody detection (ELISA) after rRBD immunization; details: for rRBD-induced SARS-CoV-2 neutralizing antibody in sera (inhibition of RBD-ACE2 interaction): n=5, compared with rRBD alone group, Figures 9A, B
Protocol: For SARS-CoV-2 recombinant RBD (rRBD) immunization, mice were intranasally immunized at two-week intervals with PBS, rRBD, rRBD plus LP1-34, rRBD plus LP2-2 or rRBD plus Pam2CSK4. Two weeks post the final immunization, mice were sacrificed and sera, saliva, stomach homogenates, intestinal lavage fluid and vaginal wash were collected for further analysis.
SARS-CoV-2 neutralizing antibody detection was performed according to the manufacturer’s instruction (zybio). Briefly, the diluted sera, BALF or nasal wash mixed with HRP-conjugated RBD were added into the hACE2-coated plate, and then the plate was incubated at 37°C for 1h. After washing the plate, the TMB substrate was added and incubated at 37°C for 10min. Finally, the reaction was ended by adding the stop solution and the absorbance was measured with a micro-plate reader (Thermo Scientific) at 450 nm.

[5] = system: BALB/c mice; assay: Intranasal immunization with SARS-CoV-2 rRBD plus lipopeptide, specific antibody ELISA; details: for RBD-specific serum IgG / RBD-specific serum IgA: intranasal rRBD with or without lipopeptide; for RBD-specific serum IgG: n=5, Figure 8A; for RBD-specific serum IgA: n=5, Figure 8B; for RBD-specific serum IgG1 compared with rRBD alone group: n=5, Figure 8C
Protocol: (§2) For OVA immunization, mice were divided into 7 groups randomly. Mice were the mice were anesthetized with pentobarbital sodium (50 mg/kg) and then intranasally immunized with PBS, OVA (10 μg), OVA (10 μg) plus one of the following lipopeptides: LP1-30, LP1-34, LP2-2 and LP2-3 or OVA plus Pam2CSK4 on day 0, 14, 28. […] For SARS-CoV-2 recombinant RBD (rRBD) immunization, mice were intranasally immunized at two-week intervals with PBS, rRBD, rRBD plus LP1-34, rRBD plus LP2-2 or rRBD plus Pam2CSK4. Two weeks post the final immunization, mice were sacrificed and sera, saliva, stomach homogenates, intestinal lavage fluid and vaginal wash were collected for further analysis.
(§3) Specific IgG and sIgA levels were determined by standard indirect ELISA. 96-well flat bottom plates were coated with OVA or rRBD and incubated overnight at 4°C. After blocking with 5% BSA in PBST, the diluted samples were added into the plates and incubated at 37°C for 1h. HRP-conjugated goat anti-mouse IgG, IgG1, IgG2a or IgA was used as a secondary antibody. TMB substrate solution was added each well and incubated about 5-10 min. Then, the reaction was ended by adding stop solution. Finally, the optical density was detected by at 450nm in a micro-plate reader (Thermo Scientific).

[6] = system: BALB/c mice; assay: Intranasal immunization with OVA plus lipopeptide, specific antibody ELISA; details: for serum OVA-specific IgA / serum OVA-specific IgG: intranasal OVA (10 μg) plus lipopeptide, day 0, 14, 28, sera 14 days after final immunization, compared with OVA alone; for serum OVA-specific IgA / serum OVA-specific IgG / vaginal OVA-specific IgG compared with Pam2CSK4 / serum OVA-specific IgG response compared with Pam2CSK4: n=5; for OVA-specific sIgA in BALF compared with Pam2CSK4: n=5, Figures 5J, K; for vaginal OVA-specific IgG compared with Pam2CSK4: vaginal wash, only adjuvanted with LP2-2 reached significance; for serum OVA-specific IgG response compared with Pam2CSK4 / serum OVA-specific IgG2a levels: intranasal OVA plus lipopeptide; for serum OVA-specific IgG2a levels: n=5, Figure 4H
Protocol: as §2, §3

[7] = system: TLR2; details: cited from earlier work
From the text: In recent years, a variety of lipopeptides have been designed and synthesized to exert adjuvant effects through activating TLR2 ([18]–[20]). […] The TLR2 activity of FSL-1 can reach 4 times that of MALP-2, while Pam2CSK4 is the ...

[8] = cited from earlier work
From the text: A number of studies have shown that lipopeptides have a significant mucosal adjuvant effect ([36]–[38]). MALP-2, the mycoplasma-derived lipopeptide, elevated the level of sIgA in BALF and vaginal lavages when intranasal co-administration with a soluble antigen ([25]).

[9] = system: BMDCs; assay: BMDC maturation surface markers by flow cytometry; type: cell-based, mouse; details: BMDCs stimulated 2 days, FACS, Figures 3A-D
Protocol: as §1
BMDCs were collected after being treated with each lipopeptidet for 48h. The expressions of surface markers on BMDCs were detected by FCM with a FACS Canto II (BD Biosciences). The cells were stained with CD11c-FITC (Biolegend, 117306), CD86-PerCP (Biolegend, 105026), CD80-APC (Biolegend, 104714) and CD40-PE (Biolegend, 124610) at 4°C for 30min. After washing with PBS, the expression of costimulatory molecules was detected by flow cytometer.

[10] = system: BMDCs; assay: Cell viability assay (MTT); type: cell-based, mouse; details: test concentrations 10-200μg/mL, 48 h, n=3, Figure S3A
Protocol: The cell viability was analyzed by MTT assay. Briefly, BMDCs were cultured with gradient dilutions of each lipopeptide for 48 h. After that, 20 μL of a MTT solution (5 mg/ml) were added per well and incubated at 37°C for 4 h. Then, the mixture was removed from the well and 100 μL DMSO were added. The absorbance was detected at a wavelength of 570 nm. % surviving cells = Mean optical absorption of cells exposed to the lipopeptide/Mean optical absorption of control cells × 100.
as §1

[11] = system: BALB/c mice; type: in vivo, mouse; details: splenic lymphocytes, 10 μg/mL peptide, 48 h, n=5, Figure 6

T1 sequence (Q9QUN7 25-784): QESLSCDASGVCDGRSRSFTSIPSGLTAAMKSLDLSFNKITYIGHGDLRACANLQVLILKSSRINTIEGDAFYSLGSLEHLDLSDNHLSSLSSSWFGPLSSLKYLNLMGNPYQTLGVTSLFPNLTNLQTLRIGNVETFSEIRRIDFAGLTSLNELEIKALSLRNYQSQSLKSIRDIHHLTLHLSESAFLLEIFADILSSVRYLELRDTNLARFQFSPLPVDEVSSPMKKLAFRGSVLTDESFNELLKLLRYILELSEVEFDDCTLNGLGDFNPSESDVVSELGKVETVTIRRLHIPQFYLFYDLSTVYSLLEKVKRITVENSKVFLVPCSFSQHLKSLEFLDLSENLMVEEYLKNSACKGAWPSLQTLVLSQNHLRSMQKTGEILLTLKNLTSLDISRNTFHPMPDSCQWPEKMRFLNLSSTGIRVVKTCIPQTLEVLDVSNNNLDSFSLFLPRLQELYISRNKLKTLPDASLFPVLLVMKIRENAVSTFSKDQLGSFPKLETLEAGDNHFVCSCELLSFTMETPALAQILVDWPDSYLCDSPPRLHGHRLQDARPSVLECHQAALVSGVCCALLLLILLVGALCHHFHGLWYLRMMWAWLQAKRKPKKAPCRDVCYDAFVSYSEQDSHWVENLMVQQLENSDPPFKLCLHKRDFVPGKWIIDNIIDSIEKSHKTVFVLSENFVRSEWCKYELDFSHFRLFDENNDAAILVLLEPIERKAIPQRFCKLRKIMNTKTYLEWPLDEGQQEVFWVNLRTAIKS

Substance | SARS-CoV-2 pseudovirus neutralizing antibody titers in serum [2] | SEAP activity compared with Pam2CSK4 [3] | rRBD-induced SARS-CoV-2 neutralizing antibody in sera (inhibition of RBD-ACE2 interaction) [4] | RBD-specific serum IgG [5] | RBD-specific serum IgA [5] | RBD-specific serum IgG1 compared with rRBD alone group [5] | RBD-specific serum IgG2a compared with rRBD alone group ([5]; n=5, Figure 8D) | serum OVA-specific IgA [6] | serum OVA-specific IgG [6] | vaginal OVA-specific IgG compared with Pam2CSK4 [6] | serum OVA-specific IgG2a levels [6] | also measured
Pam2Cys-SHYAPLPDS [LP1-34] | significantly augment | more increased SEAP activity than Pam2CSK4 | significantly elevated | significantly improved | significantly improved | elevated | elevated | significantly increased | significantly increased | higher level |  | levels of IL-12 from BMDCs compared with Pam2CSK4 [1]: higher levels; ability of BALF and nasal wash to inhibit RBD interaction with ACE2 ([4]; n=5, Figures 9C, D): improved; ability to enhance the level of RBD-specific mucosal sIgA and IgG compared with Pam2CSK4 ([5]; intranasal rRBD plus lipopeptide, n=5): stronger; rank of RBD-specific IgG2a response among LP1-34, LP2-2 and Pam2CSK4 ([5]; n=5, Figure 8D): highest; OVA-specific sIgA in BALF compared with Pam2CSK4 [6]: higher level
Pam2Cys-SEFQATYAP [LP2-3] |  | more increased SEAP activity than Pam2CSK4 |  |  |  |  |  | significantly increased | significantly increased |  | elevated | serum OVA-specific IgG response compared with Pam2CSK4 [6]: more robust
FSL-1 |  |  |  |  |  |  |  |  |  |  |  | TLR2 activity of FSL-1 relative to that of MALP-2 [7]: 4 times; EV71-specific IgG and IgA in serum, nasal washes, BALF, and feces compared with the control group ([8]; intranasal, inactivated EV71 vaccine plus FSL-1): higher level
Pam2Cys-SLARRNDTN [LP1-30] |  | more increased SEAP activity than Pam2CSK4 |  |  |  |  |  | significantly increased | significantly increased | higher level |  | levels of IL-12 from BMDCs compared with Pam2CSK4 [1]: higher levels; stimulating effect on costimulatory molecule expression of BMDCs compared with Pam2CSK4 [9]: more potent stimulating effect; anti-lipopeptide IgG antibodies in sera ([6]; OVA+LP1-30 group, ELISA, n=5, Figure S4): did not reach statistical significance
Pam2Cys-SEFAHPRHG [LP2-2] | significantly augment | more increased SEAP activity than Pam2CSK4 | significantly elevated | significantly improved | significantly improved | elevated | elevated | significantly increased | significantly increased | higher level | elevated | serum OVA-specific IgG response compared with Pam2CSK4 [6]: more robust; OVA-specific sIgA in BALF compared with Pam2CSK4 [6]: higher level
MALP-2 |  |  |  |  |  |  |  |  |  |  |  | sIgA in BALF and vaginal lavages ([8]; intranasal co-administration with a soluble antigen): elevated
FSL-2 |  |  |  |  |  |  |  |  |  |  |  | TLR2 activity of FSL-2 relative to that of FSL-1 [7]: 80%
Pam2Cys-SKHANNTHA [LP1-14, novel synthetic lipopeptide] |  | more increased SEAP activity than Pam2CSK4 |  |  |  |  |  |  |  |  |  | cytotoxicity on BMDCs (MTT) [10]: slightly cytotoxic
Pam2CSK4 [reference compound] | significantly augment |  | significantly elevated | significantly improved | significantly improved | elevated | elevated |  |  |  | elevated | TLR2 agonist potency rank among the four lipopeptides (FSL-1, FSL-2, MALP-2, Pam2CSK4) [7]: most potent TLR2 agonist; IFN-γ-forming OVA257-264-specific CD8+ T cell response [11]: slightly elevated; IFN-γ-forming OVA323-339-specific CD4+ T cell response [11]: slightly elevated
